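1) Cells in 96-well plates. 2) Compound, 48 h, 5 concentrations. 3) Linear interpolation between surrounding doses. 4) Unreached endpoint = highest concentration. TGI denotes the concentration required for complete inhibition of growth.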
What was measured:
Assay in all cases: NCI tumour cell line growth inhibition, 48 h
RXF 393 renal = tested on: RXF 393 renal
UACC-62 melanoma = tested on: UACC-62 melanoma
U251 CNS = tested on: U251 CNS
MCF7 breast = tested on: MCF7 breast
XF 498 CNS = tested on: XF 498 CNS
UO-31 renal = tested on: UO-31 renal
SK-OV-3 ovarian = tested on: SK-OV-3 ovarian
NCI/ADR-RES ovarian = tested on: NCI/ADR-RES ovarian
SNB-19 CNS = tested on: SNB-19 CNS
HT29 colon = tested on: HT29 colon
NCI-H460 lung = tested on: NCI-H460 lung
SF-295 CNS = tested on: SF-295 CNS
HCT-15 colon = tested on: HCT-15 colon
HCT-116 colon = tested on: HCT-116 colon
KM12 colon = tested on: KM12 colon
HOP-92 NSCLC = tested on: HOP-92 NSCLC
SW-620 colon = tested on: SW-620 colon
OVCAR-8 ovarian = tested on: OVCAR-8 ovarian
SK-MEL-28 melanoma = tested on: SK-MEL-28 melanoma
LOX IMVI melanoma = tested on: LOX IMVI melanoma
A549 NSCLC = tested on: A549 NSCLC
MOLT-4 leukemia = tested on: MOLT-4 leukemia
SF-539 CNS = tested on: SF-539 CNS
OVCAR-3 ovarian = tested on: OVCAR-3 ovarian
OVCAR-4 ovarian = tested on: OVCAR-4 ovarian
SN12C renal = tested on: SN12C renal
NCI-H522 lung = tested on: NCI-H522 lung
SN12K1 renal = tested on: SN12K1 renal
DMS 114 small cell lung = tested on: DMS 114 small cell lung
MALME-3M melanoma = tested on: MALME-3M melanoma
HL-60(TB) leukemia = tested on: HL-60(TB) leukemia
SK-MEL-2 melanoma = tested on: SK-MEL-2 melanoma
P388 leukemia = tested on: P388 leukemia
A498 renal = tested on: A498 renal
NCI-H226 lung = tested on: NCI-H226 lung
SF-268 CNS = tested on: SF-268 CNS
EKVX NSCLC = tested on: EKVX NSCLC
UACC-257 melanoma = tested on: UACC-257 melanoma
M19-MEL melanoma = tested on: M19-MEL melanoma
SK-MEL-5 melanoma = tested on: SK-MEL-5 melanoma
NCI-H23 lung = tested on: NCI-H23 lung
HOP-62 NSCLC = tested on: HOP-62 NSCLC
DLD-1 colon = tested on: DLD-1 colon
DMS 273 small cell lung = tested on: DMS 273 small cell lung
KM20L2 colon = tested on: KM20L2 colon
HOP-18 NSCLC = tested on: HOP-18 NSCLC
P388/ADR leukemia = tested on: P388/ADR leukemia
RPMI-8226 leukemia = tested on: RPMI-8226 leukemia
IGROV1 ovarian = tested on: IGROV1 ovarian
SNB-75 CNS = tested on: SNB-75 CNS
K-562 leukemia = tested on: K-562 leukemia
COLO 205 colon = tested on: COLO 205 colon
CCRF-CEM leukemia = tested on: CCRF-CEM leukemia
OVCAR-5 ovarian = tested on: OVCAR-5 ovarian
HCC-2998 colon = tested on: HCC-2998 colon
SNB-78 CNS = tested on: SNB-78 CNS
786-0 renal = tested on: 786-0 renal
ACHN renal = tested on: ACHN renal
TK-10 renal = tested on: TK-10 renal
RXF-631 renal = tested on: RXF-631 renal
SR leukemia = tested on: SR leukemia
CAKI-1 renal = tested on: CAKI-1 renal
M14 melanoma = tested on: M14 melanoma
LXFL 529 NSCLC = tested on: LXFL 529 NSCLC

Measured: TGI

O=S(=O)(O)c1ccc(N=Nc2ccc(N=Nc3ccc(/C=C/c4ccc(N=[N+]([O-])c5ccc(/C=C/c6ccc(N=Nc7ccc(N=Nc8ccc(S(=O)(=O)O)cc8)cc7)cc6S(=O)(=O)O)c(S(=O)(=O)O)c5)cc4S(=O)(=O)O)c(S(=O)(=O)O)c3)cc2)cc1
not listed: SNB-78 CNS | 786-0 renal | ACHN renal | TK-10 renal | RXF-631 renal | SR leukemia | CAKI-1 renal | M14 melanoma | LXFL 529 NSCLC
> 100 µM: all other assays above

O=[N+]([O-])c1cnn(C2=CNc3ccccc3N=C2)c1
not listed: MCF7 breast | NCI/ADR-RES ovarian | KM12 colon | SW-620 colon | LOX IMVI melanoma | OVCAR-4 ovarian | NCI-H522 lung | SN12K1 renal | DMS 114 small cell lung | P388 leukemia | A498 renal | SK-MEL-5 melanoma | P388/ADR leukemia | RPMI-8226 leukemia | IGROV1 ovarian | K-562 leukemia | CAKI-1 renal | M14 melanoma | LXFL 529 NSCLC
> 100 µM: all other assays above

C/C(CCc1ccccc1)=N\NC(N)=S
not listed: MCF7 breast | NCI/ADR-RES ovarian | SNB-19 CNS | NCI-H522 lung | SN12K1 renal | P388 leukemia | P388/ADR leukemia
> 100 µM: all other assays above

— PubChem BioAssay (NCI)
